Measured values published in paper PMC5745756, “N,N-disubstituted azines attenuate LPS-mediated neuroinflammation in microglia and neuronal apoptosis via inhibiting MAPK signaling pathways” (BMC Neuroscience, 2017).

What was measured:
Format in all cases: cell-based, murine
p38 = assay: Western blot of LPS-induced p38 phosphorylation in BV-2 cells; conditions: 5–20 µM; LPS 30 min, similar pattern at 24 h
Procedure: (§1) BV-2 cells were seeded in a 6-well plate at a density of 6 × 10^5 cells/well and exposed to LPS (100 ng/mL) in the presence or absence of compound 3 for required time. After treatment, cells were collected and lysed in cell lysis buffer (50 mM Tris–HCl, pH 8.0, 0.1% SDS, 150 mM NaCl, 1% NP-40, 0.02% sodium azide, 0.5% sodium deoxycholate, 100 µg/mL PMSF, and […]) for 24 h at 4 °C. The protein content was measured using a Bradford assay. Equal amounts of protein (30 µg) were separated using SDS-PAGE and transferred to a nitrocellulose membrane. The membrane was blocked for 1 h with 5% skim milk in tris-buffered saline with Tween-20 (TBST) and then incubated for 12 h with primary antibodies against α-tubulin (Sigma-Aldrich Cat. no: T5168), iNOS (Bioscience Cat. no: 610333, COX-2 (Santa Cruz Cat. no: sc-1745), ERK (Cell Signaling Cat. no: 9107s), pERK (Cell Signaling Cat. no: 5013s), JNK (Cell Signaling Cat. no: 9252s), pJNK (Cell Signaling Cat. no: 4671s), p38 (Cell Signaling Cat. no: 8690s), and pP38 (Cell Signaling Cat. no: 9211s), followed by incubation for 1 h with horseradish peroxidase-conjugated secondary antibodies (Cell Signaling) at 15 °C. […]
(§2) Fig. 3 Effect of compound 3 on MAPK pathway in LPS-induced BV-2 cells. […] The phosphorylation of p38, JNK, and ERK was measured by western blotting (a–c). […]

[1] = system: c-Jun N-terminal kinase (JNK); assay: Western blot of LPS-induced JNK phosphorylation in BV-2 cells; conditions: 5–20 µM; LPS 30 min, similar pattern at 24 h
Procedure: as §1, §2

N2a cells [2] = assay: Neuronal cell viability (MTT) of N2a cells given conditioned media from LPS-stimulated BV-2 cells; conditions: Mus musculus, MTT after 24 h, read-out: N2a cell viability, % of the only LPS treated control value
Procedure: (§3) N2a cells were used as a representative neuronal cell line for the examination of apoptotic neuron viability using direct treatment of compound 3 with TNF-α activation as well as conditioned media (CM) from LPS-stimulated BV-2 cells treated with compound 3 [28]. This assay was performed following the methods described in our previous study, with slight modifications. To measure neuron viability, BV-2 cells were first seeded and treated with 100 ng/mL LPS in the presence or absence of compound 3. After 24 h, the CM was collected and transferred to N2a cells for a further 24 h. The cell viability of N2a cells was measured using the MTT assay. Well differentiated neuronal cells were used for the experimental purpose as shown in Additional file 1: Fig. S1.
Fig. 4 Neuroprotection of compound 3 in LPS-activated microglia in N2a cells. BV-2 microglial cells were pretreated with 5, 10, and 20 µM compound 3 for 30 min and stimulated with 100 ng/mL of LPS for 24 h. After 24 h of LPS treatment, the conditioned media (CM) were collected and transferred to N2a cells. After 24 h, MTT assay was done in the same CM treated N2a cells (a) and FACS analysis (b–h). An annexin V/PI apoptosis kit was used to quantify the percentage of cells undergoing apoptosis and necrosis (x-axis, annexin V; y-axis, PI) by using FACS analysis. CM-LPS treatment alone induced apoptosis and necrosis in N2a cells (g, h). […]

N2a cells [3] = assay: TNF-α induced N2a cytotoxicity, direct treatment
Procedure: as §3
Here, we have investigated whether the compound 3 has any direct protective effects on microglia and neurons against LPS and TNF-α induced direct toxicity. As the aim of this study is to check the effectiveness of compound 3 against neurodegenerative conditions, here we checked the effect of this compound to protect microglial cells against β-amyloid induced cytotoxicity as shown in Fig. 5a. […] LPS treatment was unable to induce cellular toxicity to N2a cells (Fig. 5b). […] Compound 3 mediated neuroprotection in N2a cells is due to the inhibition of proinflammatory cytokines produced by LPS activated microglia. […]

## COc1cc(/C=C/C=N/N=C/C=C/c2ccc(O)c(OC)c2)ccc1O [Compound 3, 4,4′-(1E,1′E,3E,3′E)-3,3′-(hydrazine-1,2-diylidene)bis(prop-1-ene-1-yl-3-ylidene)bis(2-methoxyphenol)]
p38
  LPS-induced phosphorylation of p38: significantly inhibited
[1]
  LPS-induced phosphorylation of JNK: significantly inhibited
N2a cells [2]; CM of BV-2 cells treated with 10 µM compound + LPS
  viability at 10 µM: 199%
N2a cells [2]; CM of BV-2 cells treated with 20 µM compound + LPS
  viability at 20 µM: 398%
N2a cells [3]
  Cell viability of N2a cells against TNF-α mediated toxicity: increased cell viability
